Converted amounts (≈) assume the structure as drawn. Like-named read-outs stand apart in the source and are kept apart here. Square brackets hold non-standard residues; d marks the D form. Peptide text beside a SMILES is read from it. Hica(2S) = CC(C)C[C@H](O)C(=O)O; dHica = CC(C)C[C@@H](O)C(=O)O; βAla = NCCC(=O)O
Legend:
Assay type in all cases: cell-based
[1] = tested on: Saccharomyces cerevisiae; assay: Growth time-OD600 curve at MIC80, S. cerevisiae; conditions: compound at its MIC80 concentration, OD600 at 8-32 h, 37 °C, n = 3
Experimental: (§1) The strain was grown to OD600 = 0.3 in LB broth medium and diluted 100-fold. Aliquots (200 μL) of the diluted suspensions were placed into 96-well microtiter plates, and compounds 1 and 4 at the concentration of MIC80 were cultured in the plate at 37 °C. The absorbance value was measured at OD600 at 8 h, 12 h, 16 h, 20 h, 24 h, and 32 h.

[2] = tested on: Staphylococcus aureus; assay: Growth time-OD600 curve at MIC80, S. aureus; conditions: compound at its MIC80 concentration, OD600 at 8-32 h, 37 °C, n = 3
Experimental: as §1

[3] = tested on: Staphylococcus aureus; assay: Antimicrobial activity assay (MIC80, OD600), S. aureus; conditions: LB broth, 128-4 μg/mL, 37 °C, 24 h; for MIC80 against S. aureus: 96-well plate
Experimental: (§2) Strains of S. aureus and S. cerevisiae were used for the antimicrobial activity assay, and compounds 1–7 were evaluated as described. We resuscitated the bacteria and centrifuge them at 8000 rpm for 5 min at 4 °C; we then washed the precipitate twice with PBS. We diluted it with Luria-Bertani (LB) broth medium to the concentration of 5 × 10^5 CFU/mL. Strains were grown to OD600 = 0.3 in LB broth medium and diluted 400-fold. Aliquots (200 μL) of the diluted suspensions were placed into 96-well microtiter plates with isolated compounds at concentrations of 128, 64, 32, 16, 8, and 4 μg/mL and cultured at 37 °C for 24 h. Furazolidone was the positive control and DMSO was used as the negative control. The OD600 values were used to test the antimicrobial rate for MIC80.

[4] = tested on: Saccharomyces cerevisiae; assay: Antimicrobial activity assay (MIC80, OD600), S. cerevisiae; conditions: LB broth, 128-4 μg/mL, 37 °C, 24 h
Experimental: as §2

[5] = tested on: A549 human lung adenocarcinoma cell line; assay: MTT cytotoxicity assay, A549; conditions: A549 cells, 72 h treatment, absorbance 562 nm (reference 630 nm), read-out: IC50 Values, cytotoxicity against A549
Experimental: (§3) The cytotoxicity of the compound against A549 and NCI-1944 lines was determined by using 3-(4,5-dimethyl-2-thiazolyl)-2,5-diphenyl-2-H-tetrazolium bromide (MTT). The cells were maintained in DMEM containing 10% (v/v) fetal bovine serum (FBS) and 0.4% (v/v) penicillin−streptomycin solution (10,000 units/mL penicillin and 10,000 μg/mL streptomycin, 100X) at 37 °C under 5% CO2. After 24 h of adherent cell growth, different concentrations of the compounds, positive control adriamycin (ADM), and blank control (methanol) were added to 96-well plates. After 72 h, 20 μL of MTT solution was added. The absorbance value (detection wavelength is 562 nm and reference wavelength is 630 nm) was measured on the microplate reader, and the IC50 value of each compound was calculated.

[6] = tested on: NCI-H1944 human lung adenocarcinoma cell line; assay: MTT cytotoxicity assay, NCI-H1944; conditions: NCI-H1944 cells, 72 h treatment, absorbance 562 nm (reference 630 nm), read-out: IC50 Values, cytotoxicity against NCI-H1944
Experimental: as §3

With `CC(C)C[C@@H]1OC(=O)[C@H](Cc2ccccc2)NC(=O)[C@H](Cc2ccccc2)NC(=O)[C@H](Cc2ccccc2)NC(=O)[C@H](Cc2ccc(O)cc2)NC1=O` [Compound 1, avenamide A] (cyclo([Hica(2S)]YFFF)) as the molecule, how does the “growth time curve of S. cerevisiae (in words)” value [1] read?
The value was “exhibited antimicrobial activity against both strains during the measuring time”.

What about the “growth time curve of S. aureus (in words)” value [2] of the same molecule?
The value was “exhibited antimicrobial activity against both strains during the measuring time”.

And the “MIC80 against S. aureus” value [3]?
Its value is 20.25 mg/L (≈ 28.2 µM).

`CC[C@H](C)[C@@H]1NC(=O)[C@H](CC(C)C)NC(=O)[C@H](CC(C)C)NC(=O)CCNC(=O)[C@@H](CC(C)C)OC1=O` [Compound 2, avenamide B] (cyclo([dHica][βAla]LLI)) was tested. Which “antimicrobial activity against S. cerevisiae (in words)” value [4] did it give?
Its value is “did not display strong antimicrobial activity”.

And the “antimicrobial activity against S. aureus (in words)” value [3]?
Its value is “did not display strong antimicrobial activity”.

What does the source list for `CC(C)[C@H]1C(=O)O[C@H](C(C)C)C(=O)N(C)[C@@H](C(C)C)C(=O)O[C@H](C(C)C)C(=O)N(C)[C@@H](C(C)C)C(=O)O[C@H](C(C)C)C(=O)N1C` [Compound 3, enniatin B]?
MIC80 against S. cerevisiae ([4]; 96-well plate): 16.92 mg/L (≈ 26.4 µM); growth time curve of S. cerevisiae (in words) [1]: exhibited antimicrobial activity against both strains during the measuring time; growth time curve of S. aureus (in words) [2]: exhibited antimicrobial activity against both strains during the measuring time; MIC80 against S. aureus [3]: 11.08 mg/L (≈ 17.3 µM)

Which “antimicrobial activity against S. cerevisiae (in words)” value [4] does the source give for `CC[C@H](C)[C@H]1OC(=O)[C@H](C(C)C)N(C)C(=O)[C@@H](C(C)C)OC(=O)[C@H](C(C)C)N(C)C(=O)[C@@H](C(C)C)OC(=O)[C@H](C(C)C)N(C)C1=O` [Compound 4, enniatin H] here?
The value was “did not display strong antimicrobial activity”.

And the “antimicrobial activity against S. aureus (in words)” value [3]?
The value was “did not display strong antimicrobial activity”.

What does the source list for `CC(C)C[C@@H]1NC(=O)[C@H](CC(C)C)NC(=O)[C@H](C(C)C)NC(=O)[C@H](CC(C)C)NC(=O)[C@@H](CC(C)C)NC1=O` [Compound 5, cyclo-(L-Leu-L-Leu-D-Leu-L-Leu-L-Val)] (cyclo(LL[dL]LV))?
IC50 [5]: < 50 µM; IC50 [6]: < 50 µM

For `CC[C@H](C)[C@@H]1NC(=O)[C@H](CC(C)C)NC(=O)[C@H](CC(C)C)NC(=O)[C@H](CC(C)C)NC(=O)[C@H](CC(C)C)NC1=O` [Compound 6, cyclo-(L-Ile-L-Leu-L-Leu-L-Leu-L-Leu)] (cyclo(ILLLL)), which IC50 [5] is on record?
The IC50 was under 50 µM.

What about the IC50 [6] of the same molecule?
Its IC50 is under 50 µM.

For `COc1cccc2c1C(=O)c1c(O)c3c(c(O)c1C2=O)C[C@@](O)(C(=O)CO)C[C@@H]3O[C@H]1C[C@H](N)[C@H](O)[C@H](C)O1` [adriamycin, reference compound], which IC50 ([5]; Homo sapiens) is on record?
Its IC50 is 4.26 ± 0.17 µM.

And the IC50 ([6]; Homo sapiens)?
Its IC50 is 4.35 ± 0.27 µM.
